Read-outs that look alike come from different tables or passages of the source.
Test system: 280 human cancer cell lines
Experiment: OncoPanel cell proliferation assay (10-day)
Assay type: cell-based
Conditions: Homo sapiens; for IC50: read-out: Cell Count IC50; for EC50: read-out: Cell Count EC50
[1] = SW872, SW872, Soft Tissue - Sarcoma
[2] = SW 954, SW954, Female GU - Vulva
[3] = SW982, SW982, Soft Tissue - Sarcoma
[4] = SW1353, SW1353, Soft Tissue - Osteosarcoma
[5] = TE 125.T, Soft Tissue - Sarcoma
[6] = TE 381.T, Soft Tissue - Sarcoma
[7] = U2OS, Soft Tissue - Osteosarcoma
[8] = U-118-MG, U-118 MG, CNS - Glioma
[9] = VA-ES-BJ, Soft Tissue - Sarcoma
[10] = WM 266-4, WM-266-4, Skin (Melanoma)

CC(C)=CCC[C@H](C)[C@@H]1CC[C@@H](C)c2c1cc(C)c(O)c2O [Compound 4, 7,8-dihydroxyserrulat-14-ene]
GI50 (SW837, SW837, Colon, read-out: Cell Count GI50): 18.7 µM
IC50 (SW837, SW837, Colon): 18.9 µM
EC50 [1]: 4.39 µM
GI50 (SW872, SW872, Soft Tissue - Sarcoma, read-out: Cell Count GI50): 4.38 µM
IC50 [1]: 4.39 µM
EC50 (SW900, SW900, Lung - SCLC): 23.3 µM
GI50 (SW900, SW900, Lung - SCLC, read-out: Cell Count GI50): 23.1 µM
IC50 (SW900, SW900, Lung - SCLC): 23.3 µM
EC50 (SW948, SW948, Colon): 29.7 µM
GI50 (SW948, SW948, Colon, read-out: Cell Count GI50): > 30 µM
IC50 (SW948, SW948, Colon): > 30 µM
EC50 [2]: 21.7 µM
GI50 (SW 954, SW954, Female GU - Vulva, read-out: Cell Count GI50): 21.6 µM
IC50 [2]: 21.7 µM
EC50 [3]: 7.29 µM
GI50 (SW982, SW982, Soft Tissue - Sarcoma, read-out: Cell Count GI50): 7.26 µM
IC50 [3]: 7.3 µM
EC50 (SW1088, SW1088, CNS - Glioma): 8.77 µM
GI50 (SW1088, SW1088, CNS - Glioma, read-out: Cell Count GI50): 8.69 µM
IC50 (SW1088, SW1088, CNS - Glioma): 8.77 µM
EC50 [4]: 4.15 µM
GI50 (SW1353, SW1353, Soft Tissue - Osteosarcoma, read-out: Cell Count GI50): 4.14 µM
IC50 [4]: 4.15 µM
EC50 (SW1417, SW1417, Colon): > 30 µM
GI50 (SW1417, SW1417, Colon, read-out: Cell Count GI50): 29.3 µM
IC50 (SW1417, SW1417, Colon): > 30 µM
EC50 (SW1463, SW1463, Colon): 29.4 µM
GI50 (SW1463, SW1463, Colon, read-out: Cell Count GI50): 29.5 µM
IC50 (SW1463, SW1463, Colon): 29.6 µM
EC50 (SW1783, SW1783, CNS - Glioma): 12.3 µM
GI50 (SW1783, SW1783, CNS - Glioma, read-out: Cell Count GI50): 12.1 µM
IC50 (SW1783, SW1783, CNS - Glioma): 12.3 µM
EC50 (SW-403, SW403, Colon): > 30 µM
GI50 (SW-403, SW403, Colon, read-out: Cell Count GI50): > 30 µM
IC50 (SW-403, SW403, Colon): > 30 µM
EC50 (SW-620, SW620, Colon): 11.3 µM
GI50 (SW-620, SW620, Colon, read-out: Cell Count GI50): 11.3 µM
IC50 (SW-620, SW620, Colon): 11.3 µM
EC50 (SiHa, Female GU - Cervix): 11.3 µM
GI50 (SiHa, Female GU - Cervix, read-out: Cell Count GI50): 13.2 µM
IC50 (SiHa, Female GU - Cervix): 13.5 µM
EC50 (T24, Bladder): 12.2 µM
GI50 (T24, Bladder, read-out: Cell Count GI50): 12.2 µM
IC50 (T24, Bladder): 12.2 µM
EC50 (T47D, Breast): 3.28 µM
GI50 (T47D, Breast, read-out: Cell Count GI50): 2.92 µM
IC50 (T47D, Breast): 3.28 µM
EC50 (T98G, CNS - Glioma): 24.5 µM
GI50 (T98G, CNS - Glioma, read-out: Cell Count GI50): 24.5 µM
IC50 (T98G, CNS - Glioma): 24.5 µM
EC50 (TCC-SUP, TCCSUP, Bladder): 8.91 µM
GI50 (TCC-SUP, TCCSUP, Bladder, read-out: Cell Count GI50): 8.67 µM
IC50 (TCC-SUP, TCCSUP, Bladder): 8.91 µM
EC50 [5]: 23.6 µM
GI50 (TE 125.T, Soft Tissue - Sarcoma, read-out: Cell Count GI50): 17 µM
IC50 [5]: 23.6 µM
EC50 [6]: 6.28 µM
GI50 (TE 381.T, Soft Tissue - Sarcoma, read-out: Cell Count GI50): 6.08 µM
IC50 [6]: 6.28 µM
EC50 (TF-1, Leukemia): 6.57 µM
GI50 (TF-1, Leukemia, read-out: Cell Count GI50): 6.26 µM
IC50 (TF-1, Leukemia): 6.57 µM
EC50 (THP-1, Thp1, Leukemia): 12 µM
GI50 (THP-1, Thp1, Leukemia, read-out: Cell Count GI50): 11.9 µM
IC50 (THP-1, Thp1, Leukemia): 12 µM
EC50 (TUR, Lymphoma): 8.98 µM
GI50 (TUR, Lymphoma, read-out: Cell Count GI50): 8.98 µM
IC50 (TUR, Lymphoma): 8.98 µM
EC50 [7]: 4.21 µM
GI50 (U2OS, Soft Tissue - Osteosarcoma, read-out: Cell Count GI50): 4.2 µM
IC50 [7]: 4.21 µM
EC50 (U138-MG, U-138MG, CNS - Glioma): 25 µM
GI50 (U138-MG, U-138MG, CNS - Glioma, read-out: Cell Count GI50): 24.9 µM
IC50 (U138-MG, U-138MG, CNS - Glioma): 25 µM
EC50 (U266B1, Myeloma): 10.1 µM
GI50 (U266B1, Myeloma, read-out: Cell Count GI50): 9.81 µM
IC50 (U266B1, Myeloma): 10.1 µM
EC50 (U-87 MG, CNS - Glioma): 13.8 µM
GI50 (U-87 MG, CNS - Glioma, read-out: Cell Count GI50): 13.6 µM
IC50 (U-87 MG, CNS - Glioma): 13.8 µM
EC50 [8]: 13.9 µM
GI50 (U-118-MG, U-118 MG, CNS - Glioma, read-out: Cell Count GI50): 13.6 µM
IC50 [8]: 13.9 µM
EC50 (UMUC3, UM-UC-3, Bladder): 3.83 µM
GI50 (UMUC3, UM-UC-3, Bladder, read-out: Cell Count GI50): 3.82 µM
IC50 (UMUC3, UM-UC-3, Bladder): 3.83 µM
EC50 [9]: 15.2 µM
GI50 (VA-ES-BJ, Soft Tissue - Sarcoma, read-out: Cell Count GI50): 15 µM
IC50 [9]: 15.2 µM
EC50 [10]: 10.9 µM
GI50 (WM 266-4, WM-266-4, Skin (Melanoma), read-out: Cell Count GI50): 10.8 µM
IC50 [10]: 10.9 µM
EC50 (WiDr, Colon): 12.8 µM
GI50 (WiDr, Colon, read-out: Cell Count GI50): 12.8 µM
IC50 (WiDr, Colon): 12.8 µM
EC50 (Y79, Eye): 5.65 µM
GI50 (Y79, Eye, read-out: Cell Count GI50): 5.34 µM
IC50 (Y79, Eye): 5.65 µM
EC50 (YAPC, Pancreas): 18 µM
GI50 (YAPC, Pancreas, read-out: Cell Count GI50): 18.2 µM
IC50 (YAPC, Pancreas): 18.2 µM
GI50 (strong: Daudi, DOHH-2, GA-10, L-428, ST486, MX1, NALM-6, T47D, CEM-C1, A-673, read-out: GI50): 1.23 to 2.92 µM

— patent publication US11331299B2, “Medicinal use of serrulatane diterpenes” (The University of Sydney, priority 2016, dated 2022)
